Among the data in ChEMBL document CHEMBL4390680, “In silico study of M18 aspartyl amino peptidase (M18AAP) of Plasmodium vivax as an antimalarial drug target” (Bioorg Med Chem, 2019) are pIC50 values, retold here.

The structures appear in SMILES notation.

A word on the pIC50: it is the IC50 on a negative log10 scale, so that one unit is a factor of ten.

This experiment in a line: Inhibition of Plasmodium vivax aminopeptidase-M18.
In the case of `Oc1ccc(CCN2CCc3ccccc3C2)cc1O`, the pIC50 is given as 5.102.

`Oc1ccc(C2CCN(c3ccnc4ccccc34)C2)cc1O` (stereo unspecified) displayed a negative-log IC50 (pIC50) of 6.031. In turn, `O=c1ccn(CCNc2c3ccccc3nc3ccccc23)cc1OCc1ccccc1` came in with a pIC50 of 5.328. Consider `Oc1ccc(CCNc2c3ccccc3nc3ccccc23)cc1`, for which the pIC50 is 6.155. `COc1ccc(CCN(C)c2c3ccccc3nc3ccccc23)cc1OC` had a pIC50 of 5.347. `CCOc1ccc2nccc(NCCc3ccc(OC)c(OC)c3)c2c1` displayed a pIC50 of 5.854. The result for `Oc1ccc(CCNc2c3c(nc4ccccc24)CCCC3)cc1O` reads 5.443. The result for `Oc1ccc(C2CCCN(c3ccnc4ccccc34)C2)cc1O` (stereo unspecified) reads 5.377; that for `COc1cc(Br)c(CCNc2c3c(nc4ccccc24)CCCC3)cc1OC`, 5.522. In turn, `Oc1ccc(CCCNc2c3ccccc3nc3ccccc23)cc1O` registered a negative-log IC50 (pIC50) of 5.432.

`Oc1ccc(C2CCN(c3ccnc4ccccc34)CC2)cc1O` yielded a negative logarithm of the IC50 (pIC50) of 5.887.

On to `Oc1cccc(CCNc2ccnc3ccccc23)c1O`, for which the pIC50 came to 5.569. The result for `COc1ccc(CNc2c3ccccc3nc3ccccc23)cc1OC` reads 5.979; that for `NCCNc1c2ccccc2nc2ccccc12`, 6.301; that for `COc1ccc(CCNc2c3ccccc3nc3ccccc23)cc1OC`, 5.61. The result for `COc1ccc(CCNc2c3ccccc3nc3ccccc23)cc1` reads 5.959; that for `COc1cc(Br)c(CCNc2ccnc3ccccc23)cc1OC`, 6.347; that for `Cc1c(OCc2ccccc2)c(=O)ccn1CCNc1c2ccccc2nc2ccccc12`, 5.398.

As to `Oc1ccc(CCNC2CCN(Cc3ccccc3)CC2)cc1O`, the pIC50 was found to be 5.187.

As to `COc1ccc(CCCNc2c3ccccc3nc3ccccc23)cc1OC`, the pIC50 came out at 5.658. The result for `COc1cc(Br)c(CCNc2c3ccccc3nc3ccccc23)cc1OC` reads 6.522. The result for `COc1cccc(CCNc2c3ccccc3nc3ccccc23)c1` reads 6.221; that for `COc1ccc(CCNC2CCN(Cc3ccccc3)CC2)cc1OC`, 5.161.

The compound `COc1ccc(CCNc2ccnc3cc(Cl)ccc23)cc1OC` showed a pIC50 of 6.18.

Take `Cc1cccc2c(NCCc3ccc(O)c(O)c3)ccnc12`: the pIC50 is recorded as 5.328. The compound `COc1ccc(CCN(C)c2ccnc3cc(Cl)ccc23)cc1OC` registered a pIC50 of 5.24. Compound `COc1ccc(CCNc2cncc3ccccc23)cc1OC` returned a pIC50 of 5.347. For `COc1ccc(C2CCN(c3ccnc4ccccc34)C2)cc1OC` (stereo unspecified), the pIC50 is reported as 5.699. In the case of `CN(CCc1ccc(O)c(O)c1)c1ccnc2ccccc12`, the pIC50 is on record as 5.319. The result for `Oc1ccc(CCNc2ccnc3cc(Cl)ccc23)cc1O` reads 6.208; that for `Oc1ccc(CCNc2ccnc3ccccc23)cc1O`, 5.409.
